These results are taken from patent US8268772B2, “Depot preparations” (Symrise AG, priority 2001, dated 2012).

Data set [1] can be described thus: Release rate during hair coloring (GC content after mixing developer mass with ammoniacal dye solution). It counts as physicochemical. The protocol: To determine the hydrolysis rate the three depot preparations DP Example 8, DP Example 9 and DP Example 10 were added to the developer mass in a concentration of in each case 0.3%. The ammoniacal dye solution, which consists of 2 to 16% ammonia and/or substitutes such as, for example, alkanolamines, in particular monoethanolamine, water, thickeners, emulsifier, bodying agents, reactive dyes, solvents, flexing agents, stabilizers and preservatives, is then added to the developer mass in the ratio 1:1. Samples are then taken from the hair dye solution at defined time intervals, neutralized and extracted with solvent, and the content of depot preparation and released aldehyde is determined by means of gas chromatography using an internal and external standard.

Data set [2] can be described thus: Storage stability in soap formulation. Particulars: stored in the dark about one month at room temperature. It counts as physicochemical. The source says:
(§1) (Amount after storage/Amount before storage)*100%=Storage stability [%]
The separate samples are then divided into portions.
The soap formulations A to F were stored in the dark for about one-month at room temperature.

The nature of data set [3]: Storage stability in powder laundry detergent. Particulars: after one month storage.
Text: The storage stability of a fragrance or of a depot preparation is defined by the percentage of substance still present after storage. (Amount after storage/Amount before storage)*100%=Storage stability [%]
For the determination and for the comparison of the storage stability the depot preparation (DP) consisting of one or more acylals and the corresponding aldehydes (AL) are incorporated into separate samples. (SDP and SAL) of the same formulation of a consumer product, such as, for example, laundry detergent, shampoo or soap. The separate samples are then divided into portions. One portion of the sample SDP and SAL is subjected immediately to a suitable extraction and analytical measurement in order to determine the amount of depot preparation or aldehyde prior to storage. In the analytical investigation by, for example, gas chromatography, a suitable standard is used for quantification. The second portion is subjected to storage at elevated temperature for a defined period and then extracted and quantified using the same methods.
The laundry detergents A and B were used for washing or examined analytically both directly and after storage for four weeks.
Data set [4] in a line: Storage stability in hair colorant developer mass. It counts as physicochemical. How it is done: as §1
The formulation of the developer mass typically comprises water, hydrogen peroxide, acids, such as, for example, phosphoric acid, citric acid etc., thickeners, emulsifiers, preservatives, solvents and further auxiliaries. 1% of DP Example 5 is added to the formulation of the developer mass.
The developer formulation, which comprises 1% of DP Example 5, is stored for one and a half months at room temperature.

Setting [5] is: 1 min after mixing developer mass (0.3% each DP) 1:1 with ammoniacal dye solution.
[6] abbreviates: 5 min after mixing developer mass (0.3% each DP) 1:1 with ammoniacal dye solution.
[7] abbreviates: 10 min after mixing developer mass (0.3% each DP) 1:1 with ammoniacal dye solution.
Setting [8] is: 20 min after mixing developer mass (0.3% each DP) 1:1 with ammoniacal dye solution.
Setting [9] is: 30 min after mixing developer mass (0.3% each DP) 1:1 with ammoniacal dye solution.

`CCCCCCCCCC(C)C=O` (stereo not shown) [2-Methylundecanal, reference compound]: the “Relative GC content [%]” value in data set [1] (setting [5]) was 2.8%; in data set [1] (setting [6]) it was 32.8%; in data set [1] (setting [7]), 47.1%; in data set [1] (setting [8]) it was 20.7%; in data set [1] (setting [9]), 16.4%.

Regarding `CCCCCCC=O` [Aldehyde C7, heptanal, reference compound], the “Relative GC content [%]” value in data set [1] (setting [5]) stood at 1.4%; in data set [1] (setting [6]), 17.1%; in data set [1] (setting [7]), 19.3%; in data set [1] (setting [8]), 12.2%; in data set [1] (setting [9]), 11.4%.

`CCCCCCCCCC=O` [Aldehyde C10, Decanal, reference compound]: the “Storage stability [%]” value in data set [2] was 32%.

In the case of `O=Cc1ccccc1` [Benzaldehyde, reference compound], in data set [2], the “Storage stability [%]” value was found to be 45%.

`CC(C)(C)c1ccc(CCC=O)cc1` [Bourgeonal, 4-tert-Butyldihydrocinnamaldehyde, reference compound]: in data set [2], the “Storage stability [%]” value turned out to be 27%.

Molecule `CCCC(=O)OC(OC(=O)CCC)C1CC=C(CCC=C(C)C)CC1` (stereo not shown) [DP Example 3, (Butyryloxy) [4-(4-methyl-3-pentenyl)-3-cyclohexen-1-yl]methyl butyrate] yielded a Storage stability in data set [3] of 93%.

Take `CCCC(=O)OC(OC(=O)CCC)c1ccccc1` [DP Example 5, (Butyryloxy)(phenyl)methyl butyrate]: the “Storage stability [%]” value in data set [2] was found to be 93%. For the same molecule, the “Stability [%] 0 days” value in data set [4] (1% in developer mass, room temperature, 0 days) came out at 100%. Besides, in data set [4] (1% in developer mass, room temperature, 13 days), the “Stability [%] 13 days” value came to 100%. For the same molecule, the “Stability [%] 28 days” value in data set [4] (1% in developer mass, room temperature, 28 days) is recorded as 98%. In data set [4] (1% in developer mass, room temperature, 42 days), the “Stability [%] 42 days” value was found to be 100%. The “color, odor and analytical stability” value in data set [4] (developer mass, one and half months at room temperature) was “color, odor and analytically stable”.

As to `CCCC(=O)OC(CCc1ccc(C(C)(C)C)cc1)OC(=O)CCC` [DP Example 6, 3-(4-tert-Butylphenyl)-1-(butyryloxy)propyl butyrate], in data set [2], the “Storage stability [%]” value was 93%.

On to `CCCCCCCCCC(OC(=O)CCCCCC)OC(=O)CCCCCC` [DP Example 7, 1-(Heptanoyloxy)decyl heptanoate], for which the “Storage stability [%]” value in data set [2] came to 95%.

On to `CCCCCCC(OC(C)=O)OC(C)=O` [DP Example 8, 1-(Acetyloxy)heptyl acetate], for which the “Relative GC content [%]” value in data set [1] (setting [5]) is on record as 22.9%; in data set [1] (setting [6]), 0.0%; in data set [1] (setting [7]), 0.0%; in data set [1] (setting [8]) it was 0.0%; in data set [1] (setting [9]) it was 0.0%.

Consider `CC(=O)OC(OC(C)=O)C1CCC(C)=CC1C` (stereo not shown) [DP Example 9, (Acetyloxy)(2,4-dimethyl-3-cyclohexen-1-yl)methyl acetate], for which the “Relative GC content [%]” value is recorded as 28.9% in data set [1] (setting [5]); 2.5% in data set [1] (setting [6]); 0.5% in data set [1] (setting [7]); 0.0% in data set [1] (setting [8]); 0.0% in data set [1] (setting [9]).

For the molecule `CCCCCCCCCC(C)C(OC(C)=O)OC(C)=O` (stereo not shown) [DP Example 10, 1-(Acetyloxy)-2-methylundecyl acetate], the “Relative GC content [%]” value in data set [1] (setting [5]) worked out at 48.2%; in data set [1] (setting [6]), 5.1%; in data set [1] (setting [7]), 2.0%; in data set [1] (setting [8]), 0.0%; in data set [1] (setting [9]), 0.0%.

Take `CC1=CC(C)C(C=O)CC1` (stereo not shown) [Vertocitral, reference compound]: the “Relative GC content [%]” value stood at 2.1% in data set [1] (setting [5]); 33.6% in data set [1] (setting [6]); 33.6% in data set [1] (setting [7]); 19.3% in data set [1] (setting [8]); 15.7% in data set [1] (setting [9]).

In data set [3], `CC(C)=CCCC1=CCC(C=O)CC1` (stereo not shown) [Vertomugal, 1-Formyl-4-(4-methyl-3-pentenyl)-3-cyclohexene, reference compound] registered a Storage stability of 34%.
